Columns and labels:
diabetic rats = experiment: Blood glucose lowering effect by dosage for 4 hours in diabetic rats; format: in vivo, Male Sprague-Dawley (SD) rats; conditions: diabetic SD rats, subcutaneous injection (PC, positive control)
diabetic mouse = experiment: Blood glucose level after administration to diabetic mice; format: in vivo, Balb-c strain male mice; conditions: subcutaneous injection, 1 IU/kg
Description: Six-week old Balb-c strain male mice were used. Streptozotocin was dissolved in a 0.1 mM sodium chloride buffer at a concentration of 30 mg/mL, followed by subcutaneously injecting into the […] at a dosage of 65 mg/kg so as to induce diabetes. The male mice showing a blood glucose level of 470±40 mg/dL over two consecutive days were selected and the experiment was performed. The diabetic mice were starved for 12 hours before the experiment was started.
After the capsules showing the most preferable result were selected from Experimental Example 7 and Comparative Experimental Example 5, respectively, each capsule was orally administered to the diabetic mouse established in Preparative Example 4 and a blood glucose level was measured. […]
AAC (area above the blood glucose level-time curve) is to be numerically expressed the area above the blood glucose level-time curve by using a linear trapezoidal rule. […] F is relative bioavailability of a drug, which is calculated by multiplying the AAC value in case of the oral administration of insulin by the amount of insulin subcutaneously injected, dividing the resulting value by the AAC value in case of the subcutaneous injection of insulin, and dividing the resulting value by the amount of insulin orally administered. […]

Q: Insulin was tested. Which blood glucose level (diabetic rats) did it give?
A: most rapidly decreased

Q: And the blood glucose level (diabetic mouse)?
A: rapidly decreased
